27 compounds from patent publication US20050256034A1, “Dioxolane analogs for improved inter-cellular delivery” (priority 2000, published 2005) can be followed below.

The nature of this assay: 3H-Thymidine Incorporation Assay (24 hr drug, wash, another 48 hr; 72 hr assay). Conditions: for Factor (Resistance Factor = Ratio of dCK- on Wild-type CCRF-CEM): ratio of IC50 CEM/dCK- to IC50 CCRF-CEM, 24 h exposure. It is filed as cell-based. Background: Uptake of a labelled nucleoside into DNA is a usual measure of proliferation.

With `O=C(Nc1ccn([C@@H]2CO[C@H](COC(=O)C34CC5CC(CC(C5)C3)C4)O2)c(=O)n1)OCc1ccccc1` [Compound 101, ADAMANTANE-1-CARBOXYLIC ACID 4-(4-BENZYL- OXYCARBONYLAMINO-2-OX- O-2H-PYRIMIDIN-1-YL)-[1,3]DI- OXOLAN-2-YLMETHYL ESTER], the “Factor (Resistance Factor = Ratio of dCK- on Wild-type CCRF-CEM)” value worked out at 44.
With `O=C(Nc1ccn([C@@H]2CO[C@H](COC(=O)C34CC5CC(CC(C5)C3)C4)O2)c(=O)n1)C12CC3CC(CC(C3)C1)C2` [Compound 102, ADAMANTANE-1-CARBOXYLIC ACID 4-{4-[(ADAMANTANE-1-CAR- BONYL)-AMINO]-2-OX- O-2H-PYRIMIDIN-1-YL}-[1,3]DI- OXOLAN-2-YLMETHYL ESTER], the “Factor (Resistance Factor = Ratio of dCK- on Wild-type CCRF-CEM)” value was 27.
On to `O=C(Nc1ccn([C@@H]2CO[C@H](COC(=O)Oc3ccc(Cl)cc3)O2)c(=O)n1)Oc1ccc(Cl)cc1` [Compound 103, CARBONIC ACID 4-[4-(4-CHLORO-PHENOXY- CARBONYLAMINO)-2-OX- O-2H-PYRIMIDIN-1-YL]-[1,3]DI- OXOLAN-2-YLMETHYL ESTER 4-CHLORO-PHENYL ESTER], for which the “Factor (Resistance Factor = Ratio of dCK- on Wild-type CCRF-CEM)” value was 4,545.
Still for that read-out and setting: the result for `O=C(Nc1ccn([C@@H]2CO[C@H](CO)O2)c(=O)n1)Oc1ccc(Cl)cc1.O=C(O)C(F)(F)F` [Compound 104, [1-(2-HYDROXYMETHYL-[1,3]DI- OXOLAN-4-YL)-2-OX- O-1,2-DIHYDRO-PYRI- MIDIN-4-YL]-CARBAMIC ACID 4-CHLORO-PHENYL ESTER TRIFLUOROACETATE SALT] reads greater than 476; that for `Nc1ccn([C@@H]2CO[C@H](COC(=O)Oc3ccc(Cl)cc3)O2)c(=O)n1.O=C(O)C(F)(F)F` [Compound 105, CARBONIC ACID 4-(4-A- MINO-2-OXO-2H-PYRI- MIDIN-1-YL)-[1,3]DI- OXOLAN-2-YLMETHYL ESTER 4-CHLORO-PHENYL ESTER TRIFLUOROACETATE SALT], 2 393; that for `O=C(NCc1ccccc1)Nc1ccn([C@@H]2CO[C@H](CO)O2)c(=O)n1` [Compound 108, 1-BENZYL-3-[1-(2-HYDROXY- METHYL-[1,3]DI- OXOLAN-4-YL)-2-OX- O-1,2-DIHYDRO-PYRI- MIDIN-4-YL]-UREA], greater than 29.
As to `O=C(NCc1ccccc1)Nc1ccn([C@@H]2CO[C@H](COC(=O)NCc3ccccc3)O2)c(=O)n1` [Compound 109, BENZYL-CARBAMIC ACID 4-[4-(3-BEN- ZYL-UREIDO)-2-OX- O-2#H!-PYRIMIDIN-1-YL]-[1,3]DI- OXOLAN-2-YLMETHYL ESTER], the “Factor (Resistance Factor = Ratio of dCK- on Wild-type CCRF-CEM)” value was greater than 100.
Consider `Nc1ccn([C@@H]2CO[C@H](COC(=O)C34CC5CC(CC(C5)C3)C4)O2)c(=O)n1` [Compound 110, ADAMANTANE-1-CARBOXYLIC ACID 4-(4-AMINO-2-OXO-2H-PYRI- MIDIN-1-YL)-[1,3]DI- OXOLAN-2-YLMETHYL ESTER], for which the “Factor (Resistance Factor = Ratio of dCK- on Wild-type CCRF-CEM)” value was 3 307.
Same read-out and setting: under `CC(C)(C)OC(=O)N(CCCCC(=O)OC[C@H]1OC[C@@H](n2ccc(N)nc2=O)O1)Cc1ccccc1` [Compound 111, 5-(BENZYL-TERT-BUTOXY- CARBONYL-AMINO)-PENTANOIC ACID 4-(4-A- MINO-2-OXO-2H-PYRI- MIDIN-1-YL)-[1,3]DI- OXOLAN-2-YLMETHYL ESTER] stands 13000.
`COc1cc2c(cc1OC)C(=O)/C(=C/c1cc(C)c(OC(=O)OC[C@H]3OC[C@@H](n4ccc(N)nc4=O)O3)c(C)c1)C2` [Compound 112, CARBONIC ACID 4(S)-(4′-A- MINO-2′-OXO-2H-PYRI- MIDIN-1′-YL)-[1,3]DI- OXOLAN-2(S)-YL- METHYL ESTER 4-(5″,6″-DI- METHOXY-1″-OXO-IN- DAN-2″-YLIDENE- METHYL)-2,6-DI- METHYL-PHENYL ESTER]: the “Factor (Resistance Factor = Ratio of dCK- on Wild-type CCRF-CEM)” value was 10. In addition, the IC50 (CCRF-CEM, read-out: IC50 in μM (3H-TdR incorporation at 72 hr) CEM/dCK- 24 h, CEM/dCK- (CCRF-CEM deoxycytidine kinase-deficient), 24 h exposure to drug, wash, another 48 hr) was 0.057 µM.
As for `COC1(OC[C@H]2OC[C@@H](n3ccc(N)nc3=O)O2)CCCCC1` [Compound 113, 4-AMINO-1-([2-(1-METH- OXY-CYCLO- HEXYLOXYMETHYL)-[1,3]DI- OXOLAN-4-YL]-1H-PYRI- MIDIN-2-ONE], the “Factor (Resistance Factor = Ratio of dCK- on Wild-type CCRF-CEM)” value was >1 667.
Same read-out and setting: under `CC(C)(C)OC(=O)N(CCCCC(=O)Nc1ccn([C@@H]2CO[C@H](COC(=O)CCCCN(Cc3ccccc3)C(=O)OC(C)(C)C)O2)c(=O)n1)Cc1ccccc1` [Compound 114, 5-(BENZYL-TERT-BUTOXY- CARBONYL-AMINO)-PENTANOIC ACID 4-{4-[5-(BENZYL-TERT-BUTOXY- CARBONYL-AMINO)-PENTANOYL- AMINO]-2-OXO-2H!PYRI- MIDIN-1-YL)-[1,3]DI- OXOLAN-2-YLMETHYL ESTER] stands 500; under `CC(C)(C)OC(=O)N(CCCCC(=O)Nc1ccn([C@@H]2CO[C@H](CO)O2)c(=O)n1)Cc1ccccc1` [Compound 115, BENZYL-{4-[1-(2-HYDROXY- METHYL-[1,3]DI- OXOLAN-4-YL)-2-OX- O-1,2-DIHYDRO-PYRI- MIDIN-4-YLCARBA- MOYL]-BUTYL}-CARBAMIC ACID TERT!-BUTYL ESTER], greater than 500.
The same measure, in the same setting: the result for `COc1ccc(OC(=O)OC[C@H]2OC[C@@H](n3ccc(N)nc3=O)O2)cc1` [Compound 118, CARBONIC ACID 4-(4-A- MINO-2-OXO-2H-PYRI- MIDIN-1-YL)-[1,3]DI- OXOLAN-2-YLMETHYL ESTER 4-METHOXY-PHENYL ESTER] reads >3 571; that for `CCCCCCNC(=O)Nc1ccn([C@@H]2CO[C@H](COC(=O)NCCCCCC)O2)c(=O)n1` [Compound 119, HEXYL-CARBAMIC ACID 4-[4-(3-HEX- YL-UREIDO)-2-OX- O-2#H!-PYRIMIDIN-1-YL]-[1,3]DI- OXOLAN-2-YLMETHYL ESTER], “˜2”; that for `CCCCCCNC(=O)Nc1ccn([C@@H]2CO[C@H](CO)O2)c(=O)n1` [Compound 120, 1-HEXYL-3-[1-(2-HY- DROXYMETHYL-[1,3]DI- OXOLAN-4-YL)-2-OX- O-1,2-DIHYDRO-PYRI- MIDIN-4-YL]-UREA], 1.
On the same count and under the same terms, the result for `CCCCCCNC(=O)OC[C@H]1OC[C@@H](n2ccc(N)nc2=O)O1` [Compound 121, HEXYL-CARBAMIC ACID 4-(4-A- MINO-2-OXO-2H-PYRI- MIDIN-1-YL)-[1,3]DI- OXOLAN-2-YLMETHYL ESTER] reads greater than 6.
With `CCCCCCOC(=O)OC[C@H]1OC[C@@H](n2ccc(NC(=O)OCc3ccccc3)nc2=O)O1` [Compound 122, CARBONIC ACID 4-(4-BENZYLOXY- CARBONYLAMINO-2-OX- O-2H-PYRIMIDIN-1-YL)-[1,3]DI- OXOLAN-2-YLMETHYL ESTER HEXYL ESTER], the “Factor (Resistance Factor = Ratio of dCK- on Wild-type CCRF-CEM)” value is on record as 86.
With `COc1ccc(C(OC[C@H]2OC[C@@H](n3ccc(N)nc3=O)O2)(c2ccccc2)c2ccc(OC)cc2)cc1` [Compound 123, 4-AMINO-1-{2-[BIS-(4-METH- OXY-PHENYL)-PHENYL-METH- OXYMETHYL]-[1,3]DI- OXOLAN-4-YL)-1H-PYRI- MIDIN-2-ONE], the “Factor (Resistance Factor = Ratio of dCK- on Wild-type CCRF-CEM)” value turned out to be 17.
As for `CC(C)c1ccc(NC(=O)OC[C@H]2OC[C@@H](n3ccc(NC(=O)OCc4ccccc4)nc3=O)O2)cc1` [Compound 124, (1-[2-(4-ISOPROPYL-PHENYL- CARBAMOYLOXYMETHYL)-[1,3]DI- OXOLAN-4-YL]-2-OX- O-1,2-DIHYDRO-PYRI- MIDIN-4-YL}-CARBAMIC ACID BENZYL ESTER], the “Factor (Resistance Factor = Ratio of dCK- on Wild-type CCRF-CEM)” value is reported as “˜2”.
Consider `CC(C)(C)OC(=O)N(CCCCC(C)(C)C(=O)Nc1ccn([C@@H]2CO[C@H](CO)O2)c(=O)n1)Cc1ccccc1` [Compound 125, Benzyl-{5-[1-(2-hydroxy-methyl-[1,3]di-oxolan-4-yl)-2-ox-o-1,2-dihydro-pyri-midin-4-ylcarba-moyl]-5-methyl-hexyl}-carbamic acid tert-butyl ester], for which the “Factor (Resistance Factor = Ratio of dCK- on Wild-type CCRF-CEM)” value worked out at 97.
As to `COc1ccc(C(OC[C@H]2OC[C@@H](n3ccc(N)nc3=O)O2)(c2ccccc2)c2ccccc2)cc1` [Compound 134, 4-AMINO-1-{2-[(4-METH- OXY-PHENYL)-DI- PHENYL-METH- OXYMETHYL]-[1,3]DI- OXOLAN-4-YL}-1H-PYRI- MIDIN-2-ONE], the “Factor (Resistance Factor = Ratio of dCK- on Wild-type CCRF-CEM)” value stood at 3.
On to `O=c1nc(NC2Sc3ccccc3S2)ccn1[C@@H]1CO[C@H](CO)O1` [Compound 136, 4-(BENZO[1,3]DITHIOL-2-YL- AMINO)-1-(2-HYDROXY- METHYL-[1,3]DI- OXOLAN-4-YL)-1H!PYRI- MIDIN-2-ONE], for which the “Factor (Resistance Factor = Ratio of dCK- on Wild-type CCRF-CEM)” value is on record as greater than 25.
As to `COC(OC)(OC[C@H]1OC[C@@H](n2ccc(N)nc2=O)O1)c1ccccc1` [Compound 139, 4-AMINO-1-[2-(DI- METHOXY-PHENYL-METH- OXYMETHYL)-[1,3]DI- OXOLAN-4-YL]-1H-PYRI- MIDIN-2-ONE], the “Factor (Resistance Factor = Ratio of dCK- on Wild-type CCRF-CEM)” value is reported as greater than 250.
Same read-out and setting: the result for `CN(Cc1ccccc1)C(=O)OC[C@H]1OC[C@@H](n2ccc(N)nc2=O)O1` [Compound 140, BENZYL-METHYL-CARBAMIC ACID 4-(4-AMINO-2-OXO-2H-PYRI- MIDIN-1-YL)-[1,3]DI- OXOLAN-2-YLMETHYL ESTER] reads greater than 9.
Same read-out and setting: under `O=c1nc(NC2(c3ccccc3)c3ccccc3Oc3ccccc32)ccn1[C@@H]1CO[C@H](COC2(c3ccccc3)c3ccccc3Oc3ccccc32)O1` [Compound 144, 4-(9-PHENYL-9#H!-XAN- THEN-9-YLAMINO)-1-[2-(9-PHE- NYL-9#H!-XAN- THEN-9-YLOXYMETHYL)-[1,3]DI- OXOLAN-4-YL]-1#H!-PYRI- MIDIN-2-ONE] stands 110; under `Nc1ccn([C@@H]2CO[C@H](COC(=S)Oc3ccccc3)O2)c(=O)n1` [Compound 147, THIOCARBONIC ACID O-[4(S)-(4′-A- MINO-2′-OXO-2H-PYRI- MIDIN-1′-YL)-[1,3]DI- OXOLAN-2(S)-YL- METHYL]ESTER O-PHENYL ESTER], >4 000.
